Reference: ChEMBL document CHEMBL1201862, “PubChem BioAssay data set” (2004)
The source made the active and inactive calls.

What was measured:
[1] = target: T1, Polyadenylate-binding protein 1 (Homo sapiens, UniProt P11940); assay: MLLE binding blockers, Cy5 peptide tracer – biochemical, fluorescence polarization, Cy5-PAM2 peptide, secondary, miRNA deadenylation inhibitor project, dose response (AID 602260); type: functional; conditions: read-out: IC50_Mean
[2] = target: T1, Polyadenylate-binding protein 1; assay: MLLE domain peptide-binding blockers, IC50 – biochemical, fluorescence polarization, FITC-PAM2 peptide, dose response (AID 602259); type: functional; conditions: read-out: IC50_Mean
[3] = target: T2, Short transient receptor potential channel 4 (Mus musculus, UniProt Q9QUQ5); assay: block of DAMGO-driven TRPC4 calcium entry – cell-based, HEK293 TRPC4/mu-opioid, Fluo-4 calcium, dose response (AID 434942); type: functional;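 further: potency of inhibitors blocking the TRPC4 calcium response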
T2 sequence (Q9QUQ5 whole entry): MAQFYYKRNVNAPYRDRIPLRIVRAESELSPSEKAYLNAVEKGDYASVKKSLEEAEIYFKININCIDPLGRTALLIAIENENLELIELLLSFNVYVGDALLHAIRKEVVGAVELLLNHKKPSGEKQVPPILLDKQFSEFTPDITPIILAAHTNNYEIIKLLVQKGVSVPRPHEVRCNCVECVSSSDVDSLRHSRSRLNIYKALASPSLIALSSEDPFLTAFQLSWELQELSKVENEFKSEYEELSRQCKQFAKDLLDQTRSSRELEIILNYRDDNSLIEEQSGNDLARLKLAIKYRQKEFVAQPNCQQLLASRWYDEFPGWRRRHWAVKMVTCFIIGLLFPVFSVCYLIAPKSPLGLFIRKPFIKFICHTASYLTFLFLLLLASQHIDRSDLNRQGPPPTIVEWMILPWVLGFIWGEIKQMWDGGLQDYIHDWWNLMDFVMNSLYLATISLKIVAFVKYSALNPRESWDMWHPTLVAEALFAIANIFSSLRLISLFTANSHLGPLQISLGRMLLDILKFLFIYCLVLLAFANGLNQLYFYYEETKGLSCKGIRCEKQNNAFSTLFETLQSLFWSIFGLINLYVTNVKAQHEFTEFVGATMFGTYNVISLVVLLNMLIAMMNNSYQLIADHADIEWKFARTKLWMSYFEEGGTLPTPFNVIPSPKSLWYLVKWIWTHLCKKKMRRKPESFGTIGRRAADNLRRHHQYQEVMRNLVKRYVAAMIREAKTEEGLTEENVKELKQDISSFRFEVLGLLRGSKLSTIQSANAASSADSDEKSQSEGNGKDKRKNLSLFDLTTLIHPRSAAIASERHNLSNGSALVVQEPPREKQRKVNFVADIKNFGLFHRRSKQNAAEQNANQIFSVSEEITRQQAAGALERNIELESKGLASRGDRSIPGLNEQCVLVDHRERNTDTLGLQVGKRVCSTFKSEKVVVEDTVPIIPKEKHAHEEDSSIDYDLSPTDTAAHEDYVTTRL

[4] = system: BJ; assay: BJ-TERT-LT-ST fibroblast viability loss – cell-based, RAS-independent, luminescence, dose response (AID 1935); type: functional; conditions: Homo sapiens;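 further: BJ fibroblasts immortalized with TERT plus LT and ST oncogenes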
[5] = system: BJ; assay: BJ-TERT fibroblast viability loss – cell-based, RAS-independent, luminescence, dose response (AID 1933); type: functional; conditions: Homo sapiens
[6] = DRD fibroblast viability loss – cell-based, non-viral oncogenic, luminescence, dose response (AID 1934); type: functional; conditions: Homo sapiens
[7] = target: T3, Protein RecA (Mycobacterium tuberculosis, UniProt P9WHJ3); assay: Fluorescence Cell-Free Homogeneous Dose Retest to Identify Inhibitors of RecA-Intein Splicing Activity. [Related pubchem assays (depositor defined):AID2097, AID2223, AID489010, AID492950]; type: functional
T3 sequence (P9WHJ3 whole entry): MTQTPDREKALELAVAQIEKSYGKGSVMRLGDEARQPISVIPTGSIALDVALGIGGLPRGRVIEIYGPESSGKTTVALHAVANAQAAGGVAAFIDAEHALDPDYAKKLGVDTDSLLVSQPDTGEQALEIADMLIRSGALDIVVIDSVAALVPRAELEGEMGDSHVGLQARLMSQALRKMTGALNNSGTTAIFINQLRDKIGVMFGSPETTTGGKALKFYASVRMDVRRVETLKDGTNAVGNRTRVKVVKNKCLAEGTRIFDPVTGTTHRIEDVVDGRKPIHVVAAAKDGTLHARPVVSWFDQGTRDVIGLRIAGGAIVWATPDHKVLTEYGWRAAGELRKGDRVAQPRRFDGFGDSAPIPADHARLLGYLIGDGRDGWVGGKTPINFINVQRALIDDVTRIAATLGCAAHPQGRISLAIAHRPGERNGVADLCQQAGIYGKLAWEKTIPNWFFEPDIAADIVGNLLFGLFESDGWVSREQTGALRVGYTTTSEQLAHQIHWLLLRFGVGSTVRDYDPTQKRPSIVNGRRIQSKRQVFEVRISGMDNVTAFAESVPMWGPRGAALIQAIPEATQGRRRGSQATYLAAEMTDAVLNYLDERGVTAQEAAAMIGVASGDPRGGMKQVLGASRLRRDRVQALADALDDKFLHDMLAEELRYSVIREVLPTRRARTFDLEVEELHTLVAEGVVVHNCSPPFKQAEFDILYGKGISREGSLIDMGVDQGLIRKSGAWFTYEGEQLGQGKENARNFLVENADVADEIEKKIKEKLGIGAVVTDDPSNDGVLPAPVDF

[8] = system: BJ; assay: cells; type: functional, cell-based; conditions: Homo sapiens
[9] = target: T4, Replicative DNA helicase DnaB (Mycobacterium tuberculosis, UniProt P9WMR3); assay: DnaB intein splicing inhibitors, dose response, biochemical, cell-free fluorescence (AID 449749); type: functional
T4 sequence (P9WMR3 whole entry): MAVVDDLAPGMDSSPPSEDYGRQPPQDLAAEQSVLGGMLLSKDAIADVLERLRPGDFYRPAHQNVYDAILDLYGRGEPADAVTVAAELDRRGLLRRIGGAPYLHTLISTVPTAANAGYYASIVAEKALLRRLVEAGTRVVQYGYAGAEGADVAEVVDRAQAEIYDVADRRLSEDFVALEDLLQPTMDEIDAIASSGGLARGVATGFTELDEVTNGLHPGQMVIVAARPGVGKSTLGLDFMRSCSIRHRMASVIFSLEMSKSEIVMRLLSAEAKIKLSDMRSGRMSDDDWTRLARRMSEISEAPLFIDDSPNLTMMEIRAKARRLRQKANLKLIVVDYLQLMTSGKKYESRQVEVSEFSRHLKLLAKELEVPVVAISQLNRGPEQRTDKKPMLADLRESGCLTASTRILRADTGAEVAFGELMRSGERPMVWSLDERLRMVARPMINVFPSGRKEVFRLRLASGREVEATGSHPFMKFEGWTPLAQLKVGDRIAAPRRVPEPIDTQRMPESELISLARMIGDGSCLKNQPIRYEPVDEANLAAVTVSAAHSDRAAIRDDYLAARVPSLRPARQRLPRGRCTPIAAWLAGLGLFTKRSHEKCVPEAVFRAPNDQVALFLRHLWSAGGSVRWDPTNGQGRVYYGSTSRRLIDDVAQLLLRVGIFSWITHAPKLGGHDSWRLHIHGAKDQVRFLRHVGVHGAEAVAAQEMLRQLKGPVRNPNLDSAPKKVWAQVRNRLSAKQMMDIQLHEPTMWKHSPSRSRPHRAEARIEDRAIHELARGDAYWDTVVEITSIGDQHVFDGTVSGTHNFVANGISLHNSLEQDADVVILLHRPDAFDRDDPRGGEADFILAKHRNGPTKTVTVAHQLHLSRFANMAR

[10] = target: T5, DNA repair protein RAD52 homolog (Homo sapiens, UniProt P43351); type: functional, biochemical
T5 sequence (P43351 whole entry): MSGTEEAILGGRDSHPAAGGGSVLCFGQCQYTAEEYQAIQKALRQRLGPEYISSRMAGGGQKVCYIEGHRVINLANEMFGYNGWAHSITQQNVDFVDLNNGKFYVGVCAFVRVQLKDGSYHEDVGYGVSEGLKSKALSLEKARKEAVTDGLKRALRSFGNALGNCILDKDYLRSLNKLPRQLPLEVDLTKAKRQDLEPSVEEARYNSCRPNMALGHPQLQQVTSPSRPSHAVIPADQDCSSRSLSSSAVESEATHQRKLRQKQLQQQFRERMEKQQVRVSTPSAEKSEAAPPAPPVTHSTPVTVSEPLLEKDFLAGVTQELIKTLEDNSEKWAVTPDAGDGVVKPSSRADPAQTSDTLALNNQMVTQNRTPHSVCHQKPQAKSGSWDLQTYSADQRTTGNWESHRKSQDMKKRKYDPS

[11] = target: T6, DNA repair and recombination protein RAD54-like (Homo sapiens, UniProt Q92698); assay: RAD54 Holliday junction migration blockers – biochemical, fluorescence, cherry-picked samples, dose series, confirmation (AID 651657); type: functional
T6 sequence (Q92698 whole entry): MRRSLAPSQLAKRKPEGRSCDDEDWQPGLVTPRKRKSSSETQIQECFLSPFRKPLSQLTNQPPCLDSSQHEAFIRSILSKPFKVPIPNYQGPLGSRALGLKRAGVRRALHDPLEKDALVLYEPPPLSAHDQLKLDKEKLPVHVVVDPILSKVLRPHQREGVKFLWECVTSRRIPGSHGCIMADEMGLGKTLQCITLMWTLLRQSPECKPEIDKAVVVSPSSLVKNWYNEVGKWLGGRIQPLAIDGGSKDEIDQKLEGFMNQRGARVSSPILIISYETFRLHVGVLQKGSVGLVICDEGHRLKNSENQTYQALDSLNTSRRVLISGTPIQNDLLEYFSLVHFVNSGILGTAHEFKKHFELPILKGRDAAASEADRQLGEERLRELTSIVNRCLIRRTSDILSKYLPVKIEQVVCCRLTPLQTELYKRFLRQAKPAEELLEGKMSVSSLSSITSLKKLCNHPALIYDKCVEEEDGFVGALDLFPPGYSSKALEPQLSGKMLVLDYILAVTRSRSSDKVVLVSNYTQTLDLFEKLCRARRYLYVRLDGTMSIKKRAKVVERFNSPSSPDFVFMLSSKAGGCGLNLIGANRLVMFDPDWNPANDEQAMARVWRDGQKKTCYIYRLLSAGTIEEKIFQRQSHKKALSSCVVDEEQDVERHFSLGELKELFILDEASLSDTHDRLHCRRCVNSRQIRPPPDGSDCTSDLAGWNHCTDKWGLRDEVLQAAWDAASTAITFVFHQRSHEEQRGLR

[12] = viability of HCT116 lacking mutant beta-catenin – cell-based, human colon tumor, dose response (AID 1045); type: functional;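 further: HCT116 colon tumor cells with beta catenin knocked out; cells exposed to compound for 60 hours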
[13] = viability of PTEN-deleted HCT116 cells – cell-based, HCT116 PTEN knockout, dose response (AID 1047); type: functional;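 further: HCT116 colon tumor cells with PTEN knocked out; cells exposed to compound for 60 hours before readout; potency for loss of cell viability measured by luminescence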

T1 sequence (P11940 whole entry, the tested form may be a part): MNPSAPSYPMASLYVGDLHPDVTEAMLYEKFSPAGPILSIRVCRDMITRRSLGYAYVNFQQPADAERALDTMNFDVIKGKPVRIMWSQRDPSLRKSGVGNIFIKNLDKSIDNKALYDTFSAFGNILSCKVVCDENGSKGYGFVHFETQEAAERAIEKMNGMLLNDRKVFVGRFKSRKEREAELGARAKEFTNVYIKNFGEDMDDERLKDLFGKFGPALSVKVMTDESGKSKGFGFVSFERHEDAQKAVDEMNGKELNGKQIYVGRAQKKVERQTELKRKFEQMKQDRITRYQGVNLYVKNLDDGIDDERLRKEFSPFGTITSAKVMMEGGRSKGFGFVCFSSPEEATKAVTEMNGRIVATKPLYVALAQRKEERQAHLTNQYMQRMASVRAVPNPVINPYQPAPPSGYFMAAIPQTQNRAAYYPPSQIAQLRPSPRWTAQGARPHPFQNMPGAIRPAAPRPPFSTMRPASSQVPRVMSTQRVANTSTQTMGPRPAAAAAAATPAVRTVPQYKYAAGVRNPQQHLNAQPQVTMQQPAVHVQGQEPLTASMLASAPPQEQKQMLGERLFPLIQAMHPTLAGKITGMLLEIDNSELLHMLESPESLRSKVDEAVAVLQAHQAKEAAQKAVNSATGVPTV

Question: Which results are given for `CCC(C)[C@H](NC(=O)C1CC(=O)N(c2ccc3c(c2)OCO3)C1)C(=O)NC1CCCCC1` (some centres not stated)?
Answer: IC50 [1]: > 66 µM (inactive); IC50 [2]: 54.9 µM (inactive)

Question: Which EC50 [3] does the source give for `CCn1cc(CN2CCCC(CO)(Cc3cccc(Cl)c3)C2)cn1` (configuration not stated) here?
Answer: The EC50 was 5.96 µM (active).

Question: With `O=C(NC1CCCC1)C(c1ccc(Cl)cc1)N(Cc1ccc(F)cc1)C(=O)CCl` (configuration not stated) as the molecule, how does the EC50 [4] read?
Answer: Its EC50 is > 150 µM (inconclusive).

Question: What about the EC50 [5] of the same molecule?
Answer: The EC50 was 7.08 µM (inconclusive).

Question: And the EC50 [6]?
Answer: Its EC50 is 10.5 µM (inconclusive).

Question: And the EC50 [7]?
Answer: Its EC50 is 1.07 µM (active).

Question: What about the EC50 [8] of the same molecule?
Answer: Its EC50 is 16.4 µM (active).

Question: And the AC50 [9]?
Answer: The AC50 was 1.16 µM (active).

Question: What does the source list for `CN(C)CCCNc1nc2cc(-c3ccc4c(ccn4C)c3)sc2c(=O)n1C`?
Answer: AC50 [10]: 4.02 µM (active); AC50 [11]: 28.7 µM (active)

Question: What does the source list for `Cc1nc(SCC(=O)c2cc3ccccc3oc2=O)c(C#N)c(-c2ccccc2)c1C(=O)Nc1ccccc1`?
Answer: EC50 [12]: 7.01 µM (active); EC50 [13]: 8.4 µM (active)

Question: With `Cc1c(O)c(CN(C)C)cc2c1oc(=O)c1ccccc12` as the molecule, how does the AC50 [11] read?
Answer: Its AC50 is 35.5 µM (active).

Question: Which EC50 [3] does the source give for `CCC(O)C1CCN(Cc2cn(-c3ccc(OC)cc3)nc2-c2cccc(F)c2)CC1` (configuration not stated) here?
Answer: The EC50 was 10.6 µM (active).

Question: For `CCOC(=O)c1cc(-c2ccc(OC)cc2)nc2c1c(C)nn2CCC(N)=S`, which IC50 [1] is on record?
Answer: The IC50 was > 66 µM (inactive).

Question: And the IC50 [2]?
Answer: Its IC50 is > 66 µM (inactive).
